Laboratory results reported in ChEMBL document CHEMBL3870346, “Development of a simple proton nuclear magnetic resonance-based procedure to estimate the approximate distribution coefficient at physiological pH (logD7.4): Evaluation and comparison to existing practices” (Bioorg Med Chem Lett, 2017).
Where a name gives a salt, the structure may show the parent alone.

What was measured:
physchem [1] = details: buffer, pH 7.4
physchem [2] = details: 1-octanol/D2O, pH 7.4
[3] = n-Octanol/water partition coefficient, log P of the compound by HPLC method

| SMILES | logD (physchem [1]) | logD (physchem [2]) | logP ([3]; n-octanol/water) | logP ([3]; octanol/water) |
| --- | --- | --- | --- | --- |
| c1ccc2ccccc2c1 | 3.4 | – | – | – |
| c1ccc(Oc2ccccc2)cc1 | – | 3.5 | – | – |
| c1ccc2c(c1)ccc1ccccc12 | 4.5 | – | 4.5 | – |
| Cc1ccc(CO)cc1 | 1.8 | 1.4 | 1.6 | – |
| Nc1ccc(Cl)cc1 [4-CHLOROANILINE] | – | 1.8 | – | – |
| CC(=O)Nc1ccc(O)cc1 [ACETAMINOPHEN] | – | 0.2 | – | – |
| CC(=O)Nc1ccccc1 [ACETANILIDE] | 1.2 | 0.7 | – | 1 |
| CC(=O)c1ccccc1 [ACETOPHENONE] | – | 1.7 | – | – |
| COc1ccccc1 [ANISOLE] | 2.3 | 2.3 | – | – |
| N#Cc1ccccc1 [BENZONITRILE] | – | 1.6 | 1.6 | – |
| OCc1ccccc1 [BENZYL ALCOHOL] | – | 0.9 | – | – |
| c1ccc(-c2ccccc2)cc1 [BIPHENYL] | 4 | – | – | 4 |
| CCC(C)=O [BUTANONE] | 0.3 | 0.4 | 0.3 | – |
| Clc1ccccc1 [CHLOROBENZENE] | 2.9 | 2.6 | 2.8 | – |
| CCOC(=O)c1ccccc1 [ETHYL BENZOATE] | – | 2.4 | – | – |
| COc1ccc(O)cc1 [MEQUINOL] | 1.3 | 0.8 | 1.3 | – |
| COC(=O)c1ccccc1 [METHYL BENZOATE] | – | 1.9 | – | – |
| O=[N+]([O-])c1ccccc1O [NITROPHENOLATE] | – | 1.5 | 1.8 | – |
| Oc1ccccc1 [PHENOL] | 1.3 | 1.2 | – | – |
| CCN(CC)CCOC(=O)c1ccc(N)cc1 [PROCAINE HYDROCHLORIDE] | – | -0.4 | – | – |
| Cc1ccc(O)cc1 [p-CRESOL] | 1.8 | 2 | – | 1.9 |
